Reference: patent US20230405552A1, “Super Absorbent Polymer and Preparation Method Thereof” (LG Chem, Ltd., priority 2021, published 2023)

How the values were obtained:
[1] = test system: E. coli (ATCC 25922) standard strain; experiment: Antibacterial property of polymerizable antibacterial monomer against E. coli (absorbance at 600 nm); assay type: cell-based, Escherichia coli; details: 18 hours at 35° C.; for Optical density: diluted to 1/5, 600 nm
Description: (§1) The monomer was put in a 50 ml conical tube according to the content of Table 1 below, and then 25 ml of a nutrient broth (Becton Dickinson) solution, to which 3000±300 CFU/ml of E. coli (ATCC 25922) standard strain was inoculated, was injected. After culturing for 18 hours in a shaking incubator (Vision Scientific, VS-37SIF) at 35° C., the culture solution was diluted to ⅕ concentration using 1× PBS (Gibco). The absorbance of the diluted solution was measured at a wavelength of 600 nm using a UV-Vis spectrophotometer. At this time, the absorbance measured after culturing the nutrient broth solution to which the bacteria was inoculated without the addition of the monomer was compared to the absorbance of the sample to which the monomer was added, and the degree of growth of the bacteria was examined. The bacterial growth-inhibitory rate was calculated according to the following Equation 1, and the results are shown in Table 1 below. Bacterial growth-inhibitory rate(%)=[(ODReference−ODsample)/ODReference]*100 [Equation 1] in Equation, ODReference represents absorbance of the culture medium of Comparative Experimental Example 1-1 without the antibacterial material, and ODsample represents absorbance of the culture medium with the antibacterial material.

[2] = test system: Proteus mirabilis (P. mirabilis, ATCC 29906) standard strain; experiment: Antibacterial property of polymerizable antibacterial monomer against Proteus mirabilis (absorbance at 600 nm); assay type: cell-based; details: 18 hours at 35° C.; for Optical density: diluted to 1/5, 600 nm
Description: as §1, with “To examine the antibacterial properties” for “Bacterial growth-inhibitory rate(%)=[(ODReference−ODsample)/ODReference]*100 [Equation 1] in Equation, ODReference represents absorbance”, “monomer 2-(tert-butylamino)ethyl methacrylate included in Examples and the monomer 2-(dimethylamino)ethyl methacrylate against Proteus mirabilis, the bacterial growth-inhibitory rate (%) against Proteus mirabilis (P. mirabilis) was calculated in the same manner as in the antibacterial property evaluation for E. coli, except that a nutrient broth solution, to which 3000±300 CFU/ml of Proteus mirabilis (P. mirabilis, ATCC 29906) standard strain was inoculated instead of E. coli (ATCC 25922), was used. In calculating the bacteriostatic reduction rate using Equation 1, CReference represents CFU of bacteria after culturing with the monomer” for “culture medium”, “2-1” for “1-1”, “antibacterial” for “antibacterial material, and ODsample represents absorbance of the culture medium with the antibacterial”

[3] = 0.03 g monomer in 25 ml nutrient broth
[4] = 0.05 g monomer in 25 ml nutrient broth
[5] = 0.07 g monomer in 25 ml nutrient broth

In the case of `C=C(C)C(=O)OCCN(C)C` [2-(dimethylamino)ethyl methacrylate], the “Bacterial growth-inhibitory rate (%)” value [1, 3] is reported as 0.00%, the Optical density [1, 3] is reported as 0.196 and the “Bacterial growth-inhibitory rate (%)” value [1, 4] is reported as 3.67%. The Optical density [1, 4] was 0.189, the “Bacterial growth-inhibitory rate (%)” value [1, 5] was 23.98% and the Optical density [1, 5] was 0.149. The “Bacterial growth-inhibitory rate (%)” value [2, 3] was 3.37%, the Optical density [2, 3] was 0.172 and the “Bacterial growth-inhibitory rate (%)” value [2, 4] was 20.22%. The Optical density [2, 4] was 0.142, the “Bacterial growth-inhibitory rate (%)” value [2, 5] was 67.98% and the Optical density [2, 5] was 0.057.

In the case of `C=C(C)C(=O)OCCNC(C)(C)C` [2-(tert-butylamino)ethyl methacrylate], the “Bacterial growth-inhibitory rate (%)” value [1, 3] is reported as 5.61%, the Optical density [1, 3] is reported as 0.185 and the “Bacterial growth-inhibitory rate (%)” value [1, 4] is reported as 64.29%. For the same compound, the Optical density [1, 4] was 0.070, the “Bacterial growth-inhibitory rate (%)” value [1, 5] was 95.41% and the Optical density [1, 5] was 0.009. For the same compound, the “Bacterial growth-inhibitory rate (%)” value [2, 3] was 19.10%, the Optical density [2, 3] was 0.144 and the “Bacterial growth-inhibitory rate (%)” value [2, 4] was 43.82%. The Optical density [2, 4] was 0.100, the “Bacterial growth-inhibitory rate (%)” value [2, 5] was 94.94% and the Optical density [2, 5] was 0.009.
